Reference: patent US8431567B2 (Abbott GmbH & Co. KG, priority 2006, dated 2013)

Biological target: T1, human vasopressin V1b receptor (Homo sapiens, UniProt P47901)
T1 construct: expressed in transfected cells; host or cells: CHO-K1 (cell line hV1b_3H2_CHO), membrane preparation
T1 sequence (P47901 1-424): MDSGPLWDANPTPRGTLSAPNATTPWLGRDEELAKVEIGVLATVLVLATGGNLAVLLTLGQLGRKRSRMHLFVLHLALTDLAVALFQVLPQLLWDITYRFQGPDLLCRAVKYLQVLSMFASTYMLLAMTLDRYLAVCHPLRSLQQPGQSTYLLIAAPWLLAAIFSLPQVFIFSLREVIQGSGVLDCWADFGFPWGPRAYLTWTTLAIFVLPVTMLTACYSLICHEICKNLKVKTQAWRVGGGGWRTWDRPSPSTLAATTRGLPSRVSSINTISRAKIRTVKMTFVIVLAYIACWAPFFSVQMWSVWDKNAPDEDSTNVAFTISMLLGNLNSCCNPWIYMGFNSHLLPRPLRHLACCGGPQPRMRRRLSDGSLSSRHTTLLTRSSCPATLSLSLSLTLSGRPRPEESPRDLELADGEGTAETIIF
Experiment: Vasopressin V1b receptor binding test
Conditions: membranes of CHO-K1 cells, displacement of 1.5 nM 3H-AVP
Summary of the method: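 Radioligand competition binding to human V1b receptor membranes in 50 mM Tris, 10 mM MgCl2, 0.1% BSA, pH 7.4; nonspecific binding with 1 μM AVP.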

## CCOc1ccc(OC)cc1C1(N2CCN(c3ccncc3)CC2)C(=O)N(S(=O)(=O)c2ccc(OC)cc2)c2ccc(C#N)cc21 (stereo not shown) [Example 62, 5-Cyano-3-(2-ethoxy-5-methoxyphenyl)-1-(4-methoxy-benzenesulphonyl)-3-(4-pyridin-4-yl-piperazin-1-yl)-2,3-dihydro-1H-indol-2-one]
  Ki: < 50 nM

## COc1ccc(S(=O)(=O)N2C(=O)C(c3cc(OC)ccc3OC)(N3CCN(c4ccncc4)CC3)c3cc(C#N)ccc32)cc1 (stereo not shown) [Example 63, 5-Cyano-3-(2,5-dimethoxyphenyl)-1-(4-methoxy-benzenesulphonyl)-3-(4-pyridin-4-yl-piperazin-1-yl)-2,3-dihydro-1H-indol-2-one]
  Ki: < 50 nM

## CCOc1c(OC)cccc1C1(N2CCN(c3ccnc(C(C)C)c3)CC2)C(=O)N(S(=O)(=O)c2ccc(OC)cc2OC)c2ccc(C#N)cc21 (stereo not shown) [Example 110, 5-Cyano-1-(2,4-dimethoxybenzenesulphonyl)-3-(2-ethoxy-3-methoxyphenyl)-3-[4-(2-isopropylpyridin-4-yl)-piperazin-1-yl]-2,3-dihydro-1H-indol-2-one×trifluoroacetic acid]
  Ki: < 50 nM

## CCOc1cc(OC)ccc1C1(N2CCN(c3ccnc(C(C)C)c3)CC2)C(=O)N(S(=O)(=O)c2ccc(OC)cc2OC)c2ccc(C#N)cc21 (stereo not shown) [Example 111, 5-Cyano-1-(2,4-dimethoxybenzenesulphonyl)-3-(2-ethoxy-4-methoxyphenyl)-3-[4-(2-isopropylpyridin-4-yl)-piperazin-1-yl]-2,3-dihydro-1H-indol-2-one×trifluoroacetic acid]
  Ki: < 50 nM

## CCOc1ccccc1C1(N2CCN(c3ccncc3)CC2)C(=O)N(S(=O)(=O)c2ccc(OC(C)C)cc2)c2ccc(C#N)cc21 (stereo not shown) [Example 113, 5-Cyano-3-(2-ethoxyphenyl)-1-(4-isopropoxybenzenesulphonyl)-3-(4-pyridin-4-yl-piperazin-1-yl)-2,3-dihydro-1H-indol-2-one×trifluoroacetic acid]
  Ki: 50 to 500 nM

## CCOc1ccccc1C1(N2CCN(c3ccncc3)CC2)C(=O)N(S(=O)(=O)c2ccc(C)cc2F)c2ccc(C#N)cc21 (stereo not shown) [Example 115, 5-Cyano-3-(2-ethoxyphenyl)-1-(2-fluoro-4-methylbenzenesulphonyl)-3-(4-pyridin-4-yl-piperazin-1-yl)-2,3-dihydro-1H-indol-2-one]
  Ki: 50 to 500 nM

## CCOc1ccc(OC)cc1C1(NCCNc2ccncc2)C(=O)N(S(=O)(=O)c2ccc(OC)cc2OC)c2ccc(C#N)cc21 (stereo not shown) [Example 122, 5-Cyano-1-(2,4-dimethoxybenzenesulphonyl)-3-(2-ethoxy-5-methoxyphenyl)-3-[2-(pyridin-4-ylamino)-ethylamino]-2,3-dihydro-1H-indol-2-one]
  Ki: < 50 nM
